From paper PMC12057046, “Elucidation of short linear motif-based interactions of the MIT and rhodanese domains of the ubiquitin-specific protease 8” (Biology Direct, 2025)

Assays:
USP8 Rhod domain [1] = biological target: T1, USP8 Rhod domain (Homo sapiens, UniProt P40818); experiment: ProP-PD selection against USP8 Rhod domain; assay type: binding; details: for NGS counts (%): ProP-PD, human disorderome library, GST-tagged Rhod bait, four rounds of selection, Fig. 3A; for max_counts: Total NGS counts; for Counts: fraction of NGS counts for a selection; for Promiscuity: number of baits selections where the peptide has been observed, calculated on the domain level; for Replicates: number of screens against the bait protein in which the peptide has been found; for Specificity: proportion for the current bait of the total NGS read counts of the peptide for all baits screened with this library
T1 construct: USP8 Rhod (174–317) (UniProt: P40818); GST (cleaved yes); made in house; host or cells: Escherichia coli BL21-Gold (DE3)
T1 sequence (P40818 174-317): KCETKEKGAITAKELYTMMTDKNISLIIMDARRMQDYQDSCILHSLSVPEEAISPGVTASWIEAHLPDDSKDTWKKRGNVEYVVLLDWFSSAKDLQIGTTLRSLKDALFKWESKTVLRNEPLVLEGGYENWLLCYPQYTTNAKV
Procedure: We next evaluated the peptide binding of the Rhod domain by ProP-PD selections. […] (February 2025).
Four rounds of phage selections were carried out using the second generation human disorderome library or the constructed deep mutational scanning library. At least three individual replicates were used for each bait protein. 10 µg of GST-tagged proteins or GST control (diluted in PBS from the stock of proteins kept in the purification elution buffer) were immobilized in 100 µL PBS on a 96-well MaxiSorp (Nunc) plate overnight at 4 °C. The plates were incubated with blocking buffer (with 0.5% BSA in PBS) for 1 h at 4 °C followed by washing with 0.05% Tween 20 in PBS four times. The naïve phage library (10^11 CFU) was diluted in 1/5th volume PEG/NaCl (20% PEG-8000, 0.4 M NaCl) and 1X PBS, incubated on ice for 10 min and centrifuged at 10,000 [drawing 3] g for 10 min. The pellet was resuspended in the volume of PBS (100 µL/ well). The GST-coated control plate was incubated with 100 µL library per well in PBS for 1 h at 4 °C to remove non-specific binders. The supernatant was transferred to the target wells and incubated for 2 h at 4 °C. The wells were washed five times with 0.05% Tween 20 in PBS and the bound phages were eluted with 100 µL per well log-phase E. coli OmniMAX by incubating at 37° C while shaking. After 30 min, M13KO7 helper phages were added and incubated for an additional 45 min. The bacterial cultures were transferred to 1 mL 2YT supplemented with 100 µg/mL carbenicillin, 30 µg/mL kanamycin and 0.3 mM IPTG and grew overnight at 37 °C while shaking. The following day the cultures were centrifuged for 10 min at 2,000 [drawing 4] g, 4 °C. 1/10th volume of 10 [drawing 5] PBS was added to adjust the pH and heated at 65 °C for 10 min. The phage pools from each round were used as in-phages for the next round of selections.
The samples were prepared for NGS as previously described. […] The PCR products were normalized with 25 µL Mag-bind Total Pure NGS beads (Omega Biotek) and 10 µL of each eluted sample (Qiagen Elution Buffer) was pooled and cleaned-up with a PCR purification kit (Qiagen). The PCR product was confirmed by 2% agarose electrophoresis and the band was extracted with QIAquick Gel extraction Kit (Qiagen) and eluted with 30 µL TE buffer. The dsDNA was quantified using QuantiT PicoGreen dsDNA Assay Kit (Thermo Fisher) and sent for NGS (Illumina MiSeq v3, 1 × 150 bp read setup, 20% PhiX, NGI SciLifeLab facility, Sweden). The NGS data were demultiplexed, adapter regions were trimmed and sequences with an average quality of at least 20 were translated to peptide sequences. The NGS data were analysed using custom Python scripts. The total read NGS counts for each selection experiment of each peptide sequence were compiled and annotated in PepTools (https://slim.icr.ac.uk/tools/peptools/). Since ProP-PD is in essence a competition assay, the possibility of the input phage library influencing the selection outcome was explored. […] Pearson correlation coefficient and p-value were calculated using Python’s SciPy library.

USP8 Rhod domain [2] = biological target: T1, USP8 Rhod domain; experiment: SPOT array of predicted peptides from known interactors, USP8 Rhod domain; assay type: binding; details: for Percentage (%) normalized to highest intensity and corrected for background: Rhod-Peptide screening, SPOT array of predicted peptides, KIAA1614 positive control = 100; for SPOT intensity in words: GST-tagged Rhod 150 µM, positive control KIAA1614_568 − 583, array of 42 predicted peptides
From the text: The results therefore support that the USP8 Rhod domain binds to two distinct types of motifs (Fig. 4A, B). We used the motifs to scan for matching motifs in previously reported interactors using the SLiMSearch algorithm (Supplementary Table S8 A). As there was no clear match for the TET3-type motif except from only one hit, we focused on the KIAA1614-type motif. […] Both TP63 and USP21 are previously reported USP8 substrates, and the interactions may potentially contribute to substrate targeting. […] As the SHANK3 peptides (351-[…]−365 and 392-[…]−406) are closely located in the primary structure of SHANK3, it is tempting to speculate that both motifs contribute to the interactions between the full-length proteins by increasing the local concentration of binding motifs. […] Taken together, we find that the USP8 Rhod domain is a peptide binding domain that can be bound by peptides of two distinct types of motifs, with the Rx[LI]xGxxxPxxL motif and variants thereof being found in known USP8 substrates.
SPOT array alanine scanning of peptides was designed, and cellulose-bound peptides were synthesized using Fluorenylmethyloxycarbonyl (Fmoc) solid phase synthesis with a MultiPep synthesizer (INTAVIS Peptide Services, Tübingen, Germany). The membranes of predicted peptides were purchased by JPT Peptide Technologies (Berlin, Germany). The membranes were incubated with blocking buffer containing 5% skim milk in TBST (50 mM Tris, 150 mM NaCl pH 7.5, 0.05% Tween-20) for two hours at room temperature. The blocked membranes were incubated with GST-tagged proteins (100 µM for MIT domain and 150 µM for the Rhodanese domain) in blocking buffer overnight at 4 °C. After rinsed with TBST the membranes were incubated with HRP-conjugated anti-GST antibody (Cytiva, RPN1236; 1:3000 dilution) in blocking buffer for 1 h at 4 °C and subsequently rinsed with TBST to remove any excess antibody. The ECL reagent (Clarity Max Western ECL substrate, 1705062, BioRad) was used for chemiluminescence read-out with the ChemiDoc Imaging system (BioRad). The images were analysed with Fiji (ImageJ2 version 2.9.0). SLiMSearch4 was used to design the peptide arrays with known interactors predicted to contain the motifs. The background signal intensity was subtracted, and the corrected signal intensities were normalized to the positive control and presented as percentage.

Percentage (%) normalized to highest intensity and corrected for background (USP8 Rhod domain [2]) [%] | Substance | further results
– | HIWHYDEEYLPDASKP [TTBK2, Tau-tubulin kinase 2 peptide 503-518] | NGS counts (%) (USP8 Rhod domain [1]): 0.06%; max_counts (USP8 Rhod domain [1]): 76; Counts (USP8 Rhod domain [1]): 0.0007473; Promiscuity (USP8 Rhod domain [1]): 7; Replicates (USP8 Rhod domain [1]): 2; Specificity (USP8 Rhod domain [1]): 0.5152
1.42 | MAQALPWLLLWMGAG | –
7 | SLRSLPHQLLLQRLQ | –
-1.54 | AKPPGPGVLMIHPPG | –
– | SLRSLPHQLLLQRLQ [SHANK3 peptide] | SPOT intensity in words (USP8 Rhod domain [2]): Weaker signals
– | YDTLIIRDYTQSSSSL [GRM5, Metabotropic glutamate receptor 5 peptide 1197-1212] | NGS counts (%) (USP8 Rhod domain [1]): 0.02%; max_counts (USP8 Rhod domain [1]): 23; Counts (USP8 Rhod domain [1]): 0.0001477; Promiscuity (USP8 Rhod domain [1]): 4; Replicates (USP8 Rhod domain [1]): 2; Specificity (USP8 Rhod domain [1]): 0.5417
17 | QPVYSSPRRLNCAE | –
-1.1 | TASSLPRKLLPWEEG | –
1.56 | SPARSSPELLPSGV | –
– | SYAKRRRLAGPSGLA [SHANK3 peptide] | SPOT intensity in words (USP8 Rhod domain [2]): Weaker signals
52 | GVSCYRGLTGFGSRS | –
-0.521 | DPVESRGLPGPEDDK | –
4.31 | PVYSRPTVLMRAPPA | –
3.69 | MPSGSRLRLVELGLGL [Random KIAA1614 Negative control] | –
39 | SLRRLGGFPGPPTLFS | –
-1.5 | EINLQRNIAGKVVTP | –
1 | SPEKSSPQALVPNG | –

Percentage (%) normalized to highest intensity and corrected for background (USP8 Rhod domain [2]) [%] | Substance | further results
-1.73 | SSTSTRHLQGVEFEM | –
-1.22 | GKPPTPGVLMVHPPP | –
6 | TRKFSSPPPLSITK | –
45 | HEFSSPSHLLRTPSS | –
9 | SQLPSSPAQLSCRS | –
– | LMNFLGDSNPFNLLRM [BCL11B, B-cell lymphoma/leukemia 11B peptide 279-294] | NGS counts (%) (USP8 Rhod domain [1]): 0.58%; max_counts (USP8 Rhod domain [1]): 421; Counts (USP8 Rhod domain [1]): 0.006181; Promiscuity (USP8 Rhod domain [1]): 6; Replicates (USP8 Rhod domain [1]): 3; Specificity (USP8 Rhod domain [1]): 0.9228
-0.828 | AQPLTPGVLMVQPAA | –
5.49 | SSNSHRSLDGLSRTQ | –
-1.3 | AQPPTPGVLMVHPSA | –
5 | SLASVRGLQGRSMSV | –
-1.11 | TGLTVPPALLRANSD | –
– | RAB3IP82 − 95: SSPxxL containing peptide from the RAB3A interacting protein (QPVYSSPRRLNCAE) | SPOT intensity in words (USP8 Rhod domain [2]): Weaker signals
2 | RALLERCLKGEGEIE | –
-0.544 | SPLGRPESLLQSNTL | –
6.64 | SRSLSPTRLLSLPPD | –
– | QPNHGLALWEAKMKQL [TET3 1701-1716, Methylcytosine dioxygenase TET3 peptide, overlapping] | max_counts (USP8 Rhod domain [1]): 7; Counts (USP8 Rhod domain [1]): 0.00009459587683709846; Promiscuity (USP8 Rhod domain [1]): 2; Replicates (USP8 Rhod domain [1]): 3; Specificity (USP8 Rhod domain [1]): 0.8889
-0.0499 | HAVSSPDPLLCSDVT | –
